Counter-ions that a name gives are not always drawn.
Assays:
[1] = target: T1, viral reverse transcriptase (Wild Type) (Human immunodeficiency virus type 1 group M subtype B, UniProt P04585); experiment: inhibition of viral reverse transcriptase (Wild Type), cell free assay; format: biochemical; details: for IC50: read-out: IC50 (Table II, Wild Type)
T1 construct: Viral reverse transcriptase (Wild Type) is found in extracts from bacterial clones; made in house; host or cells: Escherichia coli
Source text: The utility of the pyrimidine-thioalkyl and alkylether anti-AIDS compounds of Formula IA of this invention can be determined by their ability to inhibit viral reverse transcriptase, an enzyme essential for human immunodeficiency virus replication. This enzyme has characteristics which differentiate it from other known cellular polymerases and it is a unique enzyme which is not found in uninfected cells. Viral reverse transcriptase (Wild Type) is found in extracts from bacterial clones prepared according to the procedure described in AIDS Virus Reverse Transcriptase defined by high level expression in Escherichia coli, EMBO J. 6:3133-3137 (1987). P236L viral reverse transcriptase is obtained by PNAS 90: 4713-4717 (1993). Inhibition of this enzyme is determined in a cell free assay which measures the level of radioactive precursors incorporated into DNA. Extracts prepared according to the procedure of Science, 1125-1129 (1981) are incubated in a mixture of inhibitor, 20 mM dithiothreitol, 60 mM sodium chloride, 0.05% NP-40, 10 mM magnesium chloride, 50 mM Tris pH 8.3, 10 μM [^35 S]-labeled deoxynuleoside-5'-triphosphate, 10 μg/ml RNA template (poly rC or poly rG) and 5 μg/ml DNA primer (oligo dG or oligo dT) for 30 minutes at 37° C. Incorporation of radio-labeled percursor is determined by spotting aliquots of the reaction mixture on DE81 paper, washing the papers to remove unincorporated percursor, drying and determining counts. The results (IC50 means the concentration, in μM of drug, required to inhibit the reverse transcriptase activity (P236L and Wild Type) to the extent of 50%) of various assay(s) are combined and reported as % inhibition and/or IC50 (calculated) in Table I (P236L) and Table II (Wild Type).

[2] = target: T2, P236L viral reverse transcriptase (Human immunodeficiency virus type 1 group M subtype B, UniProt P04585, P823L); experiment: inhibition of viral reverse transcriptase (P236L), cell free assay; format: biochemical; details: IC50 (Table I, P236L), 30 minutes at 37° C.
T2 construct: P236L viral reverse transcriptase is obtained by PNAS 90: 4713-4717 (1993); made in house
Outline: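 E. coli-expressed wild-type or P236L RT extracts incubated with inhibitor 30 min at 37 °C in Tris pH 8.3 with MgCl₂, NaCl, DTT, NP-40, 10 μM [35S]-dNTP, poly rC/rG template and oligo dG/dT primer. Incorporated label counted on DE81 paper; reported as % inhibition and/or IC50.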

`COC(=O)/C=C/CSc1nc(N)cc(Cl)n1` [Example 193, (E)-4-[(4-Amino-6-chloro-2-pyrimidinyl)thio]-2-butenoic acid methyl ester] showed an IC50 ([1]; 30 minutes at 37° C.) of 5.25 µM and an IC50 [2] of 0.93 µM.
For `CCN(CC)C(=O)/C=C/CSc1nc(N)cc(Cl)n1` [Example 194, (E)-N,N-Diethyl-4-[(4-amino-6-chloro-2-pyrimidinyl)thio]-2-butenamide], the IC50 ([1]; 30 minutes at 37° C.) was 0.049 µM and the IC50 [2] was 0.034 µM.
`CN1CCN(C(=O)/C=C/CSc2nc(N)cc(Cl)n2)CC1` [Example 195, (E)-4-methyl-1-[4-[(4-amino-6-chloro-2-pyrimidinyl)thio]-1-oxo-2-butenyl]piperazine] was tested, and the inhibition at 50 µM [1] was 40% and the IC50 [2] was 50 µM.
Molecule `CCNC(=O)/C=C/CSc1nc(N)cc(Cl)n1` [Example 196, (E)-N-ethyl-4-[(4-amino-6-chloro-2-pyrimidinyl)thio]-2-butenamide] has an inhibition at 50 µM [1] of 71% and an IC50 [2] of 10 µM.
Molecule `Nc1cc(Cl)nc(SC/C=C/C(=O)N2CCCCC2)n1` [Example 197, (E)-1-[4-[(4-amino-6-chloro-2-pyrimidinyl)thio]-1-oxo-2-butenyl]piperidine] has an inhibition at 10 µM [1] of 83%.
For `Nc1cc(Cl)nc(SC/C=C/C(=O)N2CCOCC2)n1` [Example 198, (E)-4-[4-[(4-amino-6-chloro-2-pyrimidinyl)thio]-1-oxo-2-butenyl]morpholine], the inhibition at 50 µM [1] was 69% and the IC50 [2] was 10 µM.
Work on `Nc1cc(Cl)nc(SC/C=C/C(=O)N2CCCC2)n1` [Example 199, (E)-1-[4-[(4-amino-6-chloro-2-pyrimidinyl)thio]-1-oxo-2-butenyl]pyrrolidine] yielded an inhibition at 1 µM [1] of 93%.
`CN(C(=O)/C=C/CSc1nc(N)cc(Cl)n1)c1ccccc1` [Example 200, (E)-N-methyl-N-phenyl-4-[(4-amino-6-chloro-2-pyrimidinyl)thio]-2-butenamide] showed an inhibition at 10 µM [1] of 57% and an IC50 [2] of 1 µM.
For `C=CCN(C)C(=O)/C=C/CSc1nc(N)cc(Cl)n1` [Example 201, (E)-N-allyl-N-methyl-4-[(4-amino-6-chloro-2-pyrimidinyl)thio]-2-butenamide], the inhibition at 1 µM [1] was 80%.
`CCCN(CCC)C(=O)/C=C/CSc1nc(N)cc(Cl)n1` [Example 202, (E)-N,N-Dipropyl-4-[(4-amino-6-chloro-2-pyrimidinyl)thio]-2-butenamide] was tested, and the inhibition at 1 µM [1] was 62%.
`CCN(C)C(=O)/C=C/CSc1nc(N)cc(Cl)n1` [Example 203, (E)-N-ethyl-N-methyl-4-[(4-amino-6-chloro-2-pyrimidinyl)thio]-2-butenamide] showed an inhibition at 1 µM [1] of 96%.
Work on `CN(C)C(=O)/C=C/CSc1nc(N)cc(Cl)n1` [Example 204, (E)-N,N-Dimethyl-4-[(4-amino-6-chloro-2-pyrimidinyl)thio]-2-butenamide] yielded an inhibition at 1 µM [1] of 78%.
Work on `CCN(CC)C(=O)/C=C/C(C)Sc1nc(N)cc(Cl)n1` (stereo not drawn) [Example 207, (E)-N,N-Diethyl-4-[(4-amino-6-chloro-2-pyrimidinyl)thio]-2-pentenamide] yielded an IC50 ([1]; 30 minutes at 37° C.) of 0.049 µM and an IC50 [2] of 0.068 µM.
With `COC(=O)/C=C(\C)CSc1nc(N)cc(Cl)n1` [Example 208, (E)-4-[(4-Amino-6-chloro-2-pyrimidinyl)thio]-3-methyl-2-butenoic acid methyl ester] the inhibition at 10 µM [1] was 79% and the IC50 [2] was 1 µM.
Molecule `COC(=O)/C=C(\C)C(C)Sc1nc(N)cc(Cl)n1` (stereo not drawn) [Example 209, (E)-4-[(4-Amino-6-chloro-2-pyrimidinyl)thio]-3-methyl-2-pentenoic acid methyl ester] has an inhibition at 10 µM [1] of 67%.
Molecule `CC(C)(Sc1nc(N)cc(Cl)n1)c1ccccn1` [Example 212, 4-Amino-6-chloro-2-(1-(2-pyridyl)-1-methylethyl)thio-pyrimidine] has an inhibition at 10 µM [1] of 57%.
`Cc1ccnc(C(C)(C)Sc2nc(N)cc(Cl)n2)c1` [Example 213] was tested, and the inhibition at 1 µM [1] was 72%.
Molecule `Cc1ccnc(C(C#N)Sc2nc(N)cc(Cl)n2)c1` (stereo not drawn) [Example 217, 4-Amino-6-chloro-2-(1-(4-methyl-2-pyridyl)-1-cyanomethyl)thio-pyrimidine] has an inhibition at 1 µM [1] of 58%.
Work on `CCC(Sc1nc(N)cc(Cl)n1)c1cc(C)ccn1` (stereo not drawn) [Example 218, 4-Amino-6-chloro-2-(1-(4-methyl-2-pyridyl)propyl)thio-pyrimidine] yielded an inhibition at 1 µM [1] of 84%.
For `CC(=O)c1ccnc(C(C)Sc2nc(N)cc(Cl)n2)c1` (stereo not drawn) [Example 219, 4-Amino-6-chloro-2-(1-(4-acetyl-2-pyridyl)ethyl)thio-pyrimidine], the inhibition at 1 µM [1] was 84%.
`CCCCC(Sc1nc(N)cc(Cl)n1)c1cc(C)ccn1` (stereo not drawn) [Example 224, 4-Amino-6-chloro-2-(1-(4-methyl-2-pyridyl)pentyl)thio-pyrimidine] was tested, and the “IC50 (Table II, Wild Type)” value ([1]; 30 minutes at 37° C.) was “INACTIVE”.
In the case of `Cc1ccnc(C(Sc2nc(N)cc(Cl)n2)C2CC2)c1` (stereo not drawn) [Example 226, 4-Amino-6-chloro-2-(1-(4-methyl-2-pyridyl)-1-cyclopropyl-methyl)thio-pyrimidine mesylate], the inhibition at 50 µM [1] is reported as 79%.
In the case of `CC(Sc1nc(N)cc(Cl)n1)c1cc(CN2CCOCC2)ccn1` (stereo not drawn) [Example 227, 4-Amino-6-chloro-2-(1-(4-(4-morpholinyl)methyl-2-pyridyl)ethyl)thio-pyrimidine], the inhibition at 50 µM [1] is reported as 49%.
`CCN(CC)Cc1ccnc(C(C)Sc2nc(N)cc(Cl)n2)c1` (stereo not drawn) [Example 228] was tested, and the inhibition at 10 µM [1] was 84%.
`CC(Sc1nc(N)cc(Cl)n1)c1ccc2ccccc2c1` (stereo not drawn) [Example 229, 4-Amino-6-chloro-2-(1-(2-naphthalenyl)ethyl)thio-pyrimidine] showed an inhibition at 10 µM [1] of 90%.
Molecule `CC(Sc1nc(N)c(Br)c(Cl)n1)c1cc2ccccc2cn1` (stereo not drawn) [Example 231, 4-Amino-5-bromo-6-chloro-2-(1-(3-isoquinolyl)ethyl)thio-pyrimidine] has an inhibition at 1 µM [1] of 78%.
In the case of `CC(Sc1nc(N)cc(Cl)n1)c1nccc2ccccc12` (stereo not drawn) [Example 232, 4-Amino-6-chloro-2-(1-(1-isoquinolyl)ethyl)thio-pyrimidine], the inhibition at 1 µM [1] is reported as 90%.
In the case of `CC(Sc1nc(N)cc(Cl)n1)c1nccc2c1CCCC2` (stereo not drawn) [Example 235, 4-Amino-6-chloro-2-(1-(1-(5,6,7,8-tetrahydroisoquinolyl))-ethyl)thiopyrimidine], the inhibition at 1 µM [1] is reported as 90%.
For `CC(Sc1nc(N)c(Br)c(Cl)n1)c1nccc2c1CCCC2` (stereo not drawn) [Example 236, 4-Amino-5-bromo-6-chloro-2-(1-(1-(5,6,7,8-tetrahydroisoquinolyl))ethyl)thio-pyrimidine], the inhibition at 1 µM [1] was 58%.
For `CC(Sc1nc(N)cc(Cl)n1)c1cc2c(c(Cl)n1)OCC2(C)C` (stereo not drawn) [Example 250, 4-Amino-6-chloro-2-(1-(7-chloro-3,3-dimethyl-2,3-dihydrofuro[2,3c]pyridine-5-yl)ethyl)thio-pyrimidine], the IC50 ([1]; 30 minutes at 37° C.) was 0.153 µM.
`CCc1coc2c(Cl)nc(C(C)Sc3nc(N)cc(Cl)n3)cc12` (stereo not drawn) [Example 251, 4-Amino-6-chloro-2-(1-(7-chloro-3-ethylfuro-[2,3c]pyridine-5yl)ethyl)thio-pyrimidine] was tested, and the IC50 ([1]; 30 minutes at 37° C.) was 0.144 µM.
With `CC(C)c1coc2cnc(C(C)Sc3nc(N)cc(Cl)n3)cc12` (stereo not drawn) [Example 252, 4-Amino-6-chloro-2-(1-(3-(1-methylethyl)furo[2,3c]-pyridin-5-yl)ethyl)thio-pyrimidine] the IC50 ([1]; 30 minutes at 37° C.) was 0.175 µM.
`Nc1cc(Cl)nc(SCc2cnc3occc3c2)n1` [Example 304, 4-amino-6-chloro-2-(furo[2,3-b]pyridin-5-yl-methylthio)-pyrimidine] was tested, and the inhibition at 1 µM [1] was 94%.
`CCOC(=O)c1cc(N)nc(SCc2ccc3ccccc3c2)n1` [Example 305, 6-amino-2-(2-naphthylmethylthio)-pyrimidine-4-carboxylic acid ethyl ester] was tested, and the inhibition at 50 µM [1] was 21%.
